This note sets out measurements from patent US11591342B2, “Heterocyclic compound, application thereof and pharmaceutical composition comprising same” (SUZHOU SINOVENT PHARMACEUTICALS CO., LTD., priority 2018, dated 2023).

Molecules are shown by their SMILES.

Series [1] concerns the target Autotaxin (ATX) (Homo sapiens (Human), UniProt Q13822). The series can be described thus: ATX bioactivity assay (Amplex Red / choline oxidase / HRP fluorescence, LPC 16:0 substrate). It counts as biochemical. The note with it: 30 min room temperature.
Series [2] deals with LPA18:2 in mouse plasma. Kind of series: Inhibition of LPA in mouse plasma (plasma LPA18:2 assay, LC-MS/MS). It counts as biochemical, CD1 mice. The note with it: fresh CD1 mouse plasma, LPA18:2, 37° C. for 120 min. On the procedure:
Effect Example 2. Inhibition of LPA in Mouse Plasma by Compounds
20 mM stock solutions of the compounds were prepared with DMSO and then diluted to 1 mM, which was subjected to a serial 3-fold dilution to yield 10 working solutions.
Collection of Fresh Mouse Plasma:
CD1 mice were euthanized by CO2 inhalation. Approximately 1 mL of whole blood was taken by cardiac puncture, with EDTA-K2 for anticoagulation. The blood was centrifuged at 3220 g for 10 min at 4° C. for plasma collection.
Reactions were performed in a 96-well plate, and the samples were tested in duplicate. 1 μL of each working solution was added to 100 μL of plasma, with the final concentrations of […]. 1 μL of DMSO was added to plasma to serve as blank. The samples were incubated in a water bath at 37° C. for 120 min, and 600 μL of 10 μM tolbutamide in methanol was added to terminate the reaction. Tolbutamide also served as an internal standard. After 5 min of vortex mixing, the samples were centrifuged at 3220 g for 45 min at 4° C. to precipitate the protein. 100 μL of the supernatant was transferred to a new plate, diluted with water based on LC-MS response and peak shapes, mixed well and analyzed by LC-MS/MS.
LPA18:2 was quantified using peak area ratio (LPA18:2/internal standard), requiring no standard curve. For test compounds of different concentrations, LPA data was represented by a percentage decrease of LPA: 100-[((LPA peak area ratio of compound)/(LPA peak area ratio of control))×100]. IC50 was calculated using Graphpad Prism 6.0 software.

Series [3] concerns the target CYP3A4 (Homo sapiens (Human), UniProt P08684). Kind of series: Time-dependent inhibition of CYP3A4 (TDI assay, human liver microsomes). It counts as in vitro ADME. The note with it: for CYP3A4 TDI % @ 10 μM: human liver microsomes, Midazolam substrate, 30 min with NADPH vs 0 min; for time-dependent inhibition on CYP3A4 (conclusion): conclusion drawn from Table 3, 10 μM. The essentials: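 Human liver microsomes (final 1 mg/mL) preincubated with test compound for 0 min without NADPH or 30 min with NADPH in 100 mM K-phosphate pH 7.4, 37 °C. Aliquot then diluted into midazolam substrate plus NADPH and incubated 15 min at 37 °C. Quenched with acetonitrile; metabolite read by LC-MS/MS.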

Chain of CYP3A4 (P08684 whole entry): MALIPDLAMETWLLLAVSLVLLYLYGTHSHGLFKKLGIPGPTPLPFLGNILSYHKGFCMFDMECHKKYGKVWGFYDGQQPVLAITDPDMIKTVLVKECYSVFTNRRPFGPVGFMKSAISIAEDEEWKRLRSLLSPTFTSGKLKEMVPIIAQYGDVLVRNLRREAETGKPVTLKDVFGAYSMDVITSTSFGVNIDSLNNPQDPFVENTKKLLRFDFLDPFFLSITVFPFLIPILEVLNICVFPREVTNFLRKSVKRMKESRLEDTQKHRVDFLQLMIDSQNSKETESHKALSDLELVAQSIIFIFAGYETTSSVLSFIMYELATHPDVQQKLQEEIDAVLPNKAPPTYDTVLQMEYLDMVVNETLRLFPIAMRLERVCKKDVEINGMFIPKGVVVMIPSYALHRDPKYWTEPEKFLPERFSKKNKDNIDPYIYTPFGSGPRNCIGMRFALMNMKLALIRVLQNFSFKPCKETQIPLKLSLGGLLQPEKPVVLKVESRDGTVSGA

`CCN(c1nc(-c2ccc(F)cc2)c(C#N)s1)c1c2cc(N3CCN(CC(=O)N4CC(O)C4)CC3C(F)(F)F)cc(F)c2nn1CC` (single isomer, unassigned) [Compound S-0134B, 2-(ethyl (2-ethyl-7-fluoro-5-(4-(2-(3-hydroxyazetidin-1-yl)-2-oxoethyl)-2-(trifluoromethyl)piperazin-1-yl)-2H-indazol-3-yl)amino)-4-(4-fluorophenyl)thiazole-5-carbonitrile]: the results for the concentration for half-maximal inhibition (IC50) in series [1] and in series [2] were 0.011 µM and 0.098 µM, respectively. The “CYP3A4 TDI % @ 10 μM” value in series [3] turned out to be 41.82%. Besides, in series [3], the “time-dependent inhibition on CYP3A4 (conclusion)” value (from here on “time-dependent inhibition”) is “weak time-dependent inhibition on CYP3A4”.
`CCc1c(N(C)c2nc(-c3ccc(F)cc3)c(C#N)s2)c2nc(N3CCN(CC(=O)N4CC(O)C4)CC3)ccc2n1C` [Compound S-0128, 2-((2-ethyl-5-(4-(2-(3-hydroxyazetidin-1-yl)-2-oxoethyl)piperazin-1-yl)-1-methyl-1H-pyrrolo[3,2-b]pyridin-3-yl)(methyl)amino)-4-(4-fluorophenyl)thiazole-5-carbonitrile] displayed a concentration for half-maximal inhibition (IC50) in series [1] of 0.142 µM. The compound also yielded an IC50 in series [2] of 0.057 µM. Further, in series [3], the “CYP3A4 TDI % @ 10 μM” value is 33.64% and the “time-dependent inhibition” value was “weak time-dependent inhibition on CYP3A4”.
On the same counts, the results for `CCN(c1nc(-c2ccc(F)cc2)c(C#N)s1)c1c2nc(N3CCN(CC(=O)N4CC(O)C4)CC3)ccc2nn1CC` [Compound S-0117, 2-(ethyl(2-ethyl-5-(4-(2-(3-hydroxyazetidin-1-yl)-2-oxoethyl)piperazin-1-yl)-2H-pyrazolo[4,3-b]pyridin-3-yl)amino)-4-(4-fluorophenyl)thiazole-5-carbonitrile] are 0.012 µM, 0.038 µM, 15.2% and “no time-dependent inhibition on CYP3A4”.
Regarding `CCc1nn2c(C)cc(N3CCN(CC(=O)N4CC(O)C4)CC3)nc2c1N(C)c1nc(-c2ccc(F)cc2)c(C#N)s1` [Compound S-0035, 2-((2-ethyl-5-(4-(2-(3-hydroxyazetidin-1-yl)-2-oxoethyl)piperazin-1-yl)-7-methylpyrazolo[1,5-a]pyrimidin-3-yl)(methyl)amino)-4-(4-fluorophenyl)thiazole-5-carbonitrile], in series [1], the concentration for half-maximal inhibition (IC50) stood at 0.062 µM. For the same compound, 0.3 µM corresponded to half-maximal inhibition in series [2] (IC50). In addition, in series [3], the “CYP3A4 TDI % @ 10 μM” value is on record as −4.84% and the “time-dependent inhibition” value is “no time-dependent inhibition on CYP3A4”.
On the same counts, the results for `CCc1oc2ccc(N3CCN(CC(=O)N4CC(O)C4)CC3)nc2c1N(CC)c1nc(-c2ccc(F)cc2)c(C#N)s1` [Compound S-0105CP, 2-(ethyl(2-ethyl-5-(4-(2-(3-hydroxyazetidin-1-yl)-2-oxoethyl)piperazin-1-yl)furo[3,2-b]pyridin-3-yl)amino)-4-(4-fluorophenyl)thiazole-5-carbonitrile] are 0.049 µM, 0.111 µM, 0% and “no time-dependent inhibition on CYP3A4”.
`CCc1nc2ncc(N3CCN(CC(=O)N4CC(O)C4)CC3)cn2c1N(C)c1nc(-c2ccc(F)cc2)c(C#N)s1` [Compound S-0021, 2-((2-ethyl-6-(4-(2-(3-hydroxyazetidin-1-yl)-2-oxoethyl)piperazin-1-yl)imidazo[1,2-a]pyrimidin-3-yl)(methyl)amino)-4-(4-fluorophenyl)thiazole-5-carbonitrile] showed a half-maximal inhibitory concentration (IC50) in series [1] of 0.102 µM. Moreover, the concentration for half-maximal inhibition (IC50) in series [2] was 0.79 µM. In series [3], the “CYP3A4 TDI % @ 10 μM” value is reported as 1.67% and the “time-dependent inhibition” value is recorded as “no time-dependent inhibition on CYP3A4”.
In the case of `CCN(c1nc(-c2ccc(F)cc2)c(C#N)s1)c1c2nc(N3CCN(CC(=O)N4CC(O)C4)CC3)cc(C)c2nn1CC` [Compound S-0124, 2-(ethyl(2-ethyl-5-(4-(2-(3-hydroxyazetidin-1-yl)-2-oxoethyl)piperazin-1-yl)-7-methyl-2H-pyrazolo[4,3-b]pyridin-3-yl)amino)-4-(4-fluorophenyl) thiazole-5-carbonitrile], in series [1], half-maximal inhibition (IC50) required 0.024 µM. For the same compound, in series [2], it took 0.096 µM to reach half-maximal inhibition (IC50). In series [3], the “CYP3A4 TDI % @ 10 μM” value was determined as 8.74% and the “time-dependent inhibition” value is reported as “no time-dependent inhibition on CYP3A4”.
